The subject of data set [1] is EAE. The settings on record: single 250 μg dose in CFA, pertussis toxin i.v. day 0 and 2. The method, then: Similarly, mice are injected with a single, 250 μg dose of MBP (87-99) or A97 in CFA containing 500 μg of heat killed Mycobacterium. Pertussis toxin (400 ng/mouse) is injected i.v. at day 0 and day 2. Mice are assessed for disease symptoms as described above.

Data set [2] has as its system EAE. The settings on record: rat, in vivo.
Data set [3] relates to lymph node cells from MBP 87-99 immunized rats. In words: Antigen-specific lymph node cell proliferation, MBP 87-99 immunized rats. In kind it is cell-based, Lewis rats. The settings on record: FIG. 3B, separate experiment. The method, then:
Within the second assay, draining lymph node cells from Lewis rats or SJL mice injected with MBP (87-99) may be used. Preferably, this assay is used in combination with the proliferation assay using T cell lines. Briefly, Lewis rats or SJL mice are injected subcutaneously with MBP (87-99) peptide in complete Freund's adjuvant. Nine to ten days later, draining lymph node cells are isolated and single-cell suspensions are prepared. Lymph node cells are incubated with various concentrations of peptide analogues for three days in a humidified air chamber containing 6.5% CO2. After incubation, the cultures are pulsed with 1-2 μCi of [^3 H]-thymidine for 12-18 hours. Cultures are harvested on fiberglass filters and counted in a scintillation counter. Mean CPM and the standard error of the mean are calculated from data determined in triplicate cultures. […] Peptide analogues which are suitable for further screening will preferably, at concentrations of at least 10 μM, cause stimulation to a level of at least 25% of the native peptide.
Female Lewis rates, approximately six weeks old, are purchased from Harlan Sprague, Indianapolis, Ind. MBP peptides are dissolved in phosphate-buffered saline (PBS) and emulsified with an equal volume of complete Freund's adjuvant (Difco Laboratories, Inc., Detroit, Mich.) supplemented with 2 mg/ml of heat-killed Mycobacterium tuberculosis H37Ra in oil (Difco). […]

Data set [4] relates to Murine MBP-specific T cell clones (AG.1H8). The data set is described as follows: Proliferation of murine MBP-specific T cell clone AG.1H8. In kind it is cell-based. The settings on record: 72 hr, [3H]-thymidine. The method, then: Murine MBP-specific T cell clones were also used as targets in proliferation assays. T cell clones (30,000 cells) were cultured for 72 hr in the presence of MBP 87-99, A97, or PLP 139-151 (myelin proteolipid protein), and irradiated, syngeneic spleen cells. For 18 hr prior to harvesting, [^3 H]-thymidine was added to each culture. Incorporated thymidine was determined.

The test system of data set [5] is IL-2 stimulated T cell line reactive to MBP 87-99. In words: Cytokine production by MBP 87-99 reactive T cell line (ELISA). In kind it is cell-based, SJL. The settings on record: 48 hr; 10 μM PLP 139-151, 3 μM A97 or 3 μM MBP 87-99. How it is done: Other suitable assays of antigen-specific T cell responses include induction of cytokine production, phosphorylation of the CD3 zeta chain, and induction of apoptosis. Briefly, for assaying cytokine production, an IL-2-stimulated T cell line, which is reactive to MBP […], is incubated with IL-2 and various MBP peptide analogues. Cytokine release is measured at 48 hr. Cytokines are measured by ELISA, or alternatively, RNA expression of cytokines may be measured by Northern blot, RNase probe protection or other standard hybridization methods. Cytokines to be assayed include IL-1 through IL-14, γ-IFN, TNF, and the like. Phosphorylation of the CD3 zeta chain is assayed in MBP 87-89-specific T cells. Briefly, cells are co-incubated with antigen-presenting cells, such as T-depleted splenocytes, which have been pulsed with MBP 87-99 or peptide analogue. Cells are then lysed, and the zeta chain is immunoprecipitated and electrophoresed on an SDS-PAGE gel. The […] may be detected with an antibody. In a third assay, apoptosis may be induced in an antigen-specific manner. For this assay, an MBP stimulated T cell line is incubated with IL-2 and various peptides. Cell loss is measured by flow cytometry or other standard method.
Cytokine production by an IL-2 stimulated T cell line, which is reactive to MBP 87-99, is measured in response to various peptides and peptide analogues. The activated T cell line is co-cultured for 48 hr with a 10-fold excess of irradiated (3000 Rads) SJL T cell-depleted spleen cells, 50 IU/ml human rIL-2 and 10 μM PLP 139-151, 3 μM A97, or 3 μM MBP 87-99. Cytokine release is measured by ELISA.
(ELISA stands for enzyme-linked immunosorbent assay.)

The next data set concerns multiple sclerosis. The settings on record: in vivo; cited from earlier work.

Here are results for five molecules from patent publication US5948764A, “Methods for treatment of multiple sclerosis utilizing peptide analogues of human myelin basic protein” (Neurocrine Biosciences, Inc., priority 1997, dated 1999).

Where a SMILES comes first, the peptide text is derived from it. [ ]: non-standard residue; d: D form.

Regarding `CC[C@H](C)[C@H](NC(=O)[C@H](CC(N)=O)NC(=O)[C@H](CCCCN)NC(=O)[C@H](Cc1ccccc1)NC(=O)[C@H](Cc1ccccc1)NC(=O)[C@H](Cc1c[nH]cn1)NC(=O)[C@@H](NC(=O)[C@@H](N)C(C)C)C(C)C)C(=O)N[C@H](C(=O)N[C@H](C(=O)N1CCC[C@H]1C(=O)N[C@@H](C)C(=O)N[C@H](C(=O)N1CCC[C@H]1C(=O)O)[C@@H](C)O)[C@@H](C)O)C(C)C` [A97] (H-VVHFFKNIVTPATP-OH), the animals developing disease in the data set with EAE [1] is given as 5/5. In the data set with EAE [1] (FIG. 11), the “mean clinical score following injection” value is given as “increased mean clinical score”.

In the case of `CC[C@H](C)[C@H](NC(=O)[C@H](CC(N)=O)NC(=O)[C@H](CCCCN)NC(=O)[C@H](Cc1ccccc1)NC(=O)[C@H](Cc1ccccc1)NC(=O)[C@@H](Cc1c[nH]cn1)NC(=O)[C@@H](NC(=O)[C@@H](N)C(C)C)C(C)C)C(=O)N[C@H](C(=O)N[C@H](C(=O)N1CCC[C@H]1C(=O)N[C@@H](CCCNC(=N)N)C(=O)N[C@H](C(=O)N1CCC[C@H]1C(=O)O)[C@@H](C)O)[C@@H](C)O)C(C)C` [h88] (H-VV[dH]FFKNIVTPRTP-OH), the “induction of EAE” value with EAE [2] was “does not induce EAE in rats”.

`CC[C@H](C)[C@H](NC(=O)[C@@H]1CCCN1C(=O)[C@@H](NC(=O)[C@@H](N)Cc1ccccc1)C(C)C)C(=O)N[C@@H](Cc1ccccc1)C(=O)N[C@H](C(=O)N[C@@H](Cc1ccc(O)cc1)C(=O)NCC(=O)N[C@@H](CCC(=O)O)C(=O)N[C@@H](CC(C)C)C(=O)N[C@@H](CCC(N)=O)C(=O)N[C@@H](CCCNC(=N)N)C(=O)N[C@@H](CCSC)C(=O)N[C@@H](CCC(N)=O)C(=O)N[C@@H](CCC(=O)O)C(=O)N[C@@H](CCCCN)C(=O)N[C@@H](CCC(=O)O)C(=O)N[C@@H](CCCNC(=N)N)C(=O)N[C@@H](CC(N)=O)C(=O)N[C@@H](CCCCN)C(=O)NCC(=O)N[C@@H](CCC(N)=O)C(=O)O)[C@@H](C)O` [motlin]: in data set [3], the “proliferative response of lymph node cells” value is “not”.

Regarding “PLP 139-151: myelin proteolipid protein peptide 139-151, control peptide (CHCLGKWLGHPDK; UniProt P60202 139-151, looked up, fragment)”, in data set [4] (10 μM peptide), the Proliferation came to 0.15 ± 0.03 CPM × 10^-3. The molecule further came in with a Proliferation in data set [4] (50 μM peptide) of 0.26 ± 0.12 CPM × 10^-3. In data set [5], this molecule came in with an IL-2 release of 1646 pg/mL, an IL-4 release of 2197 pg/mL and a γ-IFN release of 3073 pg/mL.

B1: IFN-γ: cytokine administered in a pilot study in MS (protein, UniProt P01579 24-161, looked up)
Interferon gamma: QDPYVKEAENLKKYFNAGHSDVADNGTLFLGILKNWKEESDRKIMQSQIVSFYFKLFKNFKDDQSIQKSVETIKEDMNVKFFNSNKKKRDDFEKLTNYSVTDLNVQRKAIHELIQVMAELSPAAKTGKRKRSQMLFRG
Consider B1, for which, in the data set on multiple sclerosis, the “patients with a clinical exacerbation” value is given as 7 of 18.
